Where two headings read alike, the source gives them in different places.
Key:
[1] = Prothrombin time (PT), human plasma
[2] = target: T1, Cl^- s (Homo sapiens, UniProt P09871); test: Inactivation rate of complement protein C1s; assay type: biochemical; conditions: Table II; pH 7.5, 25° C; [I] 0.8 to 44 μM; read-out: kobs/[I]
T1 construct: Cl^- s^e
T1 sequence (P09871 438-688 limits assumed): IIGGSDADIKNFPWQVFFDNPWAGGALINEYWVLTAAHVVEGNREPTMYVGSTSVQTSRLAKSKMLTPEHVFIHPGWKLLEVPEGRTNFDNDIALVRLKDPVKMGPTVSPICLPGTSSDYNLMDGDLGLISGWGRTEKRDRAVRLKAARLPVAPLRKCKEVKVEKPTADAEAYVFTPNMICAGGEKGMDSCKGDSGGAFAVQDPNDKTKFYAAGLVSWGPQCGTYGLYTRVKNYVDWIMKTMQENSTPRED
T1 sequence (P09871 16-437 partner limits assumed): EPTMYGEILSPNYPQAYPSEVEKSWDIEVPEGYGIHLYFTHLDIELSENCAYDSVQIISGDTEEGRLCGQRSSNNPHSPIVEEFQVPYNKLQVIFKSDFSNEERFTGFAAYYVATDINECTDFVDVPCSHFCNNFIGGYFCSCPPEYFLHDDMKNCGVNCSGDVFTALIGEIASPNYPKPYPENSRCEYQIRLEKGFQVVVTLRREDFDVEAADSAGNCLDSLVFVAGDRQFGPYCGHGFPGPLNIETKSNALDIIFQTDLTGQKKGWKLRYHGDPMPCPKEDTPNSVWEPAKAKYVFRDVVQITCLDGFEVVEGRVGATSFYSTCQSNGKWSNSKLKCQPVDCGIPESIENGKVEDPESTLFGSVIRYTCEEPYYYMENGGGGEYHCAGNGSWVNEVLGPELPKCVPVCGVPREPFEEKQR
Experimental: (§1) Inactivation rates of serine proteases by substituted isocoumarins were measured by the incubation method. An aliquot of inhibitor (25 or 50 μl) in Me2 SO was added to a buffered enzyme solution (0.01-2.3 μM) to initiate the inactivation. Aliquots (50 μl) were withdrawn at various intervals and the residual enzymatic activity was measured. Me2 SO concentration in the reaction mixture was 8-12% (v/v). 0.1 Hepes, 0.01M CaCl2, pH 7.5 buffer was utilized for trypsin and coagulation enzymes. 0.1M Hepes, 0.5M NaCl, pH 7.5 was utilized for other serine proteases. The inhibitor concentrations are shown in all the tables. Peptide thioesters or peptide nitroanilides with appropriate sequence were used as substrates for various serine proteases. All peptide thioester hydrolysis rates were measured with assay mixtures containing 4,4'-dithiodipyridine (ε324 =19800M^-1 cm^-1; Grasetti & Murray, Arch. Biochem. Biophys. 119, pp 41-49 (1967)). Peptide 4-nitroanilide nitroanilide hydrolysis was measured at 410 nm (ε410 =8800M^-1 cm^-1; Erlanger et al., Arch. Biochem. Biophys. 95, pp 271-278 (1961)). First order inactivation rate constant (kobs) were obtained from plots of ln (vt /vo) vs time, and the correlation coefficients were greater than 0.98.
(§2) ^a Conditions were 0.1M Hepes, 0.5M NaCl, pH 7.5, 8-10% Me2 SO
(§3) and 25° C. Inactivation rates were measured by incubation method.
(§4) Enzyme concentrations were as follows: protein D, 1-9 μM; C2, 0.7-1
(§5) μM; B, 1.8 μM; Bb, 0.3-0.8 μM; Cl^- s, 0.07 μM; Cl^-

[3] = target: T2, complement protein C2 (Homo sapiens, UniProt P06681); test: Inactivation rate of complement protein C2; assay type: biochemical; conditions: for kinact/KI: Table II, pH 7.5, 25° C, [I] 0.19 to 1.25 mM, read-out: kobs/[I]
T2 sequence (P06681 21-752): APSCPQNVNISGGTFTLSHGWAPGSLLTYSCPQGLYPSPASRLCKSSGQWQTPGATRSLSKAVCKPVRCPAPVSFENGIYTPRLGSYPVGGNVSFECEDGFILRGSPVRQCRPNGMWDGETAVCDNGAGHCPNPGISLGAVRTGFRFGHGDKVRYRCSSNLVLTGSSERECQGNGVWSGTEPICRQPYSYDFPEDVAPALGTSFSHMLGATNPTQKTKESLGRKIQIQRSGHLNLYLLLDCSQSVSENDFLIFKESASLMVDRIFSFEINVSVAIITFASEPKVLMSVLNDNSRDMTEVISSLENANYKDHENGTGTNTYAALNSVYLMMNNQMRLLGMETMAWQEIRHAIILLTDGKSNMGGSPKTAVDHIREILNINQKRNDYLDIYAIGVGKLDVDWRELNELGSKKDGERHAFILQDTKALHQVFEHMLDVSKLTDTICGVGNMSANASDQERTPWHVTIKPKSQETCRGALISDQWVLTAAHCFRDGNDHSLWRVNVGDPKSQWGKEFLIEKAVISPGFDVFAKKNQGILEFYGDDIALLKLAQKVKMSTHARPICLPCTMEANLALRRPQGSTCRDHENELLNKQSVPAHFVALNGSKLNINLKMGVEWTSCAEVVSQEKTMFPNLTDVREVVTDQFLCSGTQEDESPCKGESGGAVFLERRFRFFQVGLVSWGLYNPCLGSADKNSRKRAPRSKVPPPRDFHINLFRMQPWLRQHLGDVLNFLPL
Experimental: as §1, §2, §3, §4, §5

[4] = target: T3, bovine trypsin (Bos taurus, UniProt P00760); test: Inactivation rate of bovine trypsin; assay type: biochemical; conditions: read-out: kobs/[I]
T3 sequence (P00760 24-246): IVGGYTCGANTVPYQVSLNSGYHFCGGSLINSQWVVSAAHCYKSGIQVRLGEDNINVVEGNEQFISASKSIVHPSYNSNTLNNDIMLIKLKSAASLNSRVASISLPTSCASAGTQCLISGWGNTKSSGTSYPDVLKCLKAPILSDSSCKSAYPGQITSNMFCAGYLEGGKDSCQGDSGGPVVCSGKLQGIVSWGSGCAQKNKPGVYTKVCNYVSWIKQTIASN
Procedure, shortened: (§6)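 Enzyme 0.01-2.3 μM, 0.1M Hepes/0.01M CaCl2 pH 7.5, 8-12% Me2SO, 25° C; inhibitor added, timed aliquots assayed for remaining activity; kobs = slope of ln(vt/vo) vs t.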

[5] = target: T4, human factor Xa (Homo sapiens, UniProt P00742); test: Inactivation rate of human factor Xa; assay type: biochemical; conditions: pH 7.5, 25° C, read-out: kobs/[I]
T4 construct: human factor Xa
Procedure, shortened: as §6

[6] = Table I, pH 7.5, 25° C, [I] 1 to 12 μM
[7] = pH 7.5, Table I, progress curve method
[8] = pH 7.5, Table I, same concentration of enzyme and inhibitor

T4 sequence (P00742 235-488 limits assumed): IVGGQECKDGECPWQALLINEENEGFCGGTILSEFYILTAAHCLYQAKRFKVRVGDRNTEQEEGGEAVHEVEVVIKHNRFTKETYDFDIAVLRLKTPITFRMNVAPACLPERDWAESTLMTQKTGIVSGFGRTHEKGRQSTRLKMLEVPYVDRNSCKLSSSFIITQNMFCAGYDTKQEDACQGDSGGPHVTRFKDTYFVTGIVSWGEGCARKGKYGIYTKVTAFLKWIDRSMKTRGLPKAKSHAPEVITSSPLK
T4 sequence (P00742 41-179 partner limits assumed): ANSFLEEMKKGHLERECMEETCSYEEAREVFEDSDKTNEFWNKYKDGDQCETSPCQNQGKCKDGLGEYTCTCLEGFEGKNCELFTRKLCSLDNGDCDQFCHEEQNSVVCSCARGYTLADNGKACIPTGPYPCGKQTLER

With `O=c1oc(Cl)c(Cl)c2ccccc12` [3,4-dichloroisocoumarin, reference compound] the PT ([1]; [I] 33 μM) was 12.4 s, the kinact/KI [2] was 170 M⁻¹ s⁻¹ and the “inhibition of C2 (in words)” value [3] was “do not show any inhibition”.
Work on `N=C(N)SCCOc1oc(=O)c2ccccc2c1Cl` [3-(2-isothiureidoethoxy)-4-chloroisocoumarin] yielded a kinact/KI [3] of 1.5 M⁻¹ s⁻¹ and a kinact/KI [4, 6] of 32000 M⁻¹ s⁻¹.
With `NCCCOc1oc(=O)c2ccccc2c1Cl` [3-(3-aminopropoxy)-4-chloroisocoumarin] the kinact/KI [4, 6] was 7600 M⁻¹ s⁻¹.
For `N=C(N)SCCCOc1oc(=O)c2ccccc2c1Cl` [3-(3-isothiureidopropoxy)-4-chloroisocoumarin], the PT ([1]; [I] 31 μM) was 12.3 s, the kinact/KI [2] was 130000 M⁻¹ s⁻¹ and the kinact/KI [3] was 0.5 M⁻¹ s⁻¹. The kinact/KI [4, 6] was 46000 M⁻¹ s⁻¹.
`N=C(N)SCCCOc1oc(=O)c2cc(N)ccc2c1Cl` [7-amino-4-chloro-3-(3-isothiureidopropoxy)isocoumarin] showed a PT ([1]; [I] 29 μM) of 19.4 s, a kinact/KI ([5]; Table I, [I] 5 to 105 μM) of 60 M⁻¹ s⁻¹ and a kinact/KI [2] of 23000 M⁻¹ s⁻¹. It also gave a kinact/KI [4, 7] of 410000 M⁻¹ s⁻¹.
`CCOc1oc(=O)c2cc(NC(=N)N)ccc2c1Cl` [7-guanidino-3-ethoxy-4-chloroisocoumarin, 7-guanidino-4-chloro-3-ethoxyisocoumarin] gave a PT ([1]; [I] 21 μM) of 22.4 s, a PT ([1]; [I] 53 μM) of 31.4 s and a PT ([1]; [I] 75 μM) of 44.2 s. For the same compound, the PT ([1]; [I] 107 μM) was 80 s, the kinact/KI ([5]; Table I, [I] 5 to 105 μM) was 11000 M⁻¹ s⁻¹ and the kinact/KI [2] was 690 M⁻¹ s⁻¹. For the same compound, the kinact/KI [4, 8] was over 110000 M⁻¹ s⁻¹.
For `COc1cc2ccc(NC(=N)N)cc2c(=O)o1` [7-guanidino-3-methoxyisocoumarin], the kinact/KI [4, 6] was 3300 M⁻¹ s⁻¹.
`N=C(N)Nc1ccc2c(Cl)c(OCCc3ccccc3)oc(=O)c2c1` [7-guanidino-4-chloro-3-(2-phenylethoxy)isocoumarin] showed a PT ([1]; [I] 27 μM) of 13.0 s, a kinact/KI ([5]; Table I, [I] 5 to 105 μM) of 11000 M⁻¹ s⁻¹ and a kinact/KI [2] of 90 M⁻¹ s⁻¹. The kinact/KI [4, 8] was over 110000 M⁻¹ s⁻¹.
Compound `COc1oc(=O)c2cc(NC(=N)N)ccc2c1Cl` [7-guanidino-4-chloro-3-methoxyisocoumarin] has a PT ([1]; [I] 21 μM) of 16.5 s, a kinact/KI ([5]; Table I, [I] 5 to 105 μM) of 11000 M⁻¹ s⁻¹ and a kinact/KI [2] of 660 M⁻¹ s⁻¹. The kinact/KI [4, 7] was 310000 M⁻¹ s⁻¹.
Compound `N=C(N)SCCOc1oc(=O)c2cc(NC(=O)Nc3ccccc3)ccc2c1Cl` [PhNHCONH-CiTEtOIC, 7-(phenylcarbamoylamino)-4-chloro-3-(2-isothiureidoethoxy)isocoumarin] has a kinact/KI ([5]; Table VIII, [I] 3.6-44 μM) of 4740 M⁻¹ s⁻¹ and a kinact/KI ([4]; Table VIII, pH 7.5, 25° C, [I] 1.1-4.6 μM) of 21000 M⁻¹ s⁻¹.
